Experimental data from PubChem BioAssay (NCI).
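The compound was tested at five concentrations on cells cultured in 96-well plates, with a 48-hour exposure period. GI50 marks 50% less growth. Definition used: TGI = concentration required for complete inhibition of growth.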

Columns and labels:
Assay in all cases: inhibition of tumour cell growth, NCI panel, 48 h
SW-620 colon = system: SW-620 colon
OVCAR-4 ovarian = system: OVCAR-4 ovarian
NCI-H460 lung = system: NCI-H460 lung
NCI-H226 lung = system: NCI-H226 lung
SN12C renal = system: SN12C renal
NCI-H23 lung = system: NCI-H23 lung
LOX IMVI melanoma = system: LOX IMVI melanoma
COLO 205 colon = system: COLO 205 colon
NCI/ADR-RES ovarian = system: NCI/ADR-RES ovarian
PC-3 prostate = system: PC-3 prostate
A549 NSCLC = system: A549 NSCLC
MDA-MB-231 breast = system: MDA-MB-231 breast
SNB-19 CNS = system: SNB-19 CNS
SF-539 CNS = system: SF-539 CNS

Compound	TGI (SW-620 colon) [µM]	TGI (OVCAR-4 ovarian) [µM]	TGI (NCI-H460 lung) [µM]	TGI (NCI-H226 lung) [µM]	TGI (SN12C renal) [µM]	TGI (NCI-H23 lung) [µM]	TGI (LOX IMVI melanoma) [µM]	TGI (COLO 205 colon) [µM]	TGI (NCI/ADR-RES ovarian) [µM]	TGI (PC-3 prostate) [µM]	TGI (A549 NSCLC) [µM]	TGI (MDA-MB-231 breast) [µM]	TGI (SNB-19 CNS) [µM]	TGI (SF-539 CNS) [µM]	GI50 (NCI/ADR-RES ovarian) [µM]	GI50 (SN12C renal) [µM]	GI50 (SF-539 CNS) [µM]	GI50 (PC-3 prostate) [µM]	GI50 (MDA-MB-231 breast) [µM]	GI50 (SNB-19 CNS) [µM]
CN1C(=O)CN2C(Cl)(Cl)C2(c2ccccc2)c2cc(Cl)ccc21 (centres undefined)	> 100	> 100	> 100	> 100	> 100	> 100	> 100	> 100												
CCP(=O)(CC)C(Cl)(Cl)C(O)C(Cl)(Cl)Cl (centres undefined)	> 100	> 100	> 100	> 100	> 100	> 100	> 100	> 100	> 100	> 100	> 100	> 100	> 100							
CCCCCCCCCC/C=C/C=O	> 100		> 100		> 100	> 100	> 100	> 100			> 100		> 100	> 100						
NCCCn1c2c(c3ccc([N+](=O)[O-])cc3c1=O)C(=O)c1cc(F)ccc1-2					0.805				1.2	1.63		1.24	1.52	0.101	0.0412	0.0439	0.0288	0.0398	0.422	0.0589
Cc1cc(C)c(NC(=O)/C=C/c2ccccc2)c(C)c1	> 100	> 100	> 100	> 100		> 100			> 100	> 100	> 100		> 100	> 100						
C#C[C@]1(O)[C@@H](CO)O[C@@H](n2ccc(N)nc2=O)[C@@H]1O	3.92	5.33	0.508	3.66		1.78	0.0945	0.203		0.762	> 100	> 100	> 24	13.5						
